Test results published in US8691865B2 (AbbVie Inc., priority 2008, dated 2014).

What follows are molecules tested against human Cav2.2 (Homo sapiens, UniProt Q00975) (assay: Assessment of calcium channel activity using FLIPR (Ca2+ influx in IMR32 cells)). Conditions: not given.
Assay type: cell-based
Outline: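 IC50 values derive from nonlinear sigmoidal fitting of percent inhibition, relative to inhibitor-free activity, of Ca2+ influx read by FLIPR. Cells were IMR32 human neuroblastoma, plated at 1−1.2×10^5 per well and grown 48 h at 37 °C.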

Sequence of human Cav2.2 (Q00975 whole entry): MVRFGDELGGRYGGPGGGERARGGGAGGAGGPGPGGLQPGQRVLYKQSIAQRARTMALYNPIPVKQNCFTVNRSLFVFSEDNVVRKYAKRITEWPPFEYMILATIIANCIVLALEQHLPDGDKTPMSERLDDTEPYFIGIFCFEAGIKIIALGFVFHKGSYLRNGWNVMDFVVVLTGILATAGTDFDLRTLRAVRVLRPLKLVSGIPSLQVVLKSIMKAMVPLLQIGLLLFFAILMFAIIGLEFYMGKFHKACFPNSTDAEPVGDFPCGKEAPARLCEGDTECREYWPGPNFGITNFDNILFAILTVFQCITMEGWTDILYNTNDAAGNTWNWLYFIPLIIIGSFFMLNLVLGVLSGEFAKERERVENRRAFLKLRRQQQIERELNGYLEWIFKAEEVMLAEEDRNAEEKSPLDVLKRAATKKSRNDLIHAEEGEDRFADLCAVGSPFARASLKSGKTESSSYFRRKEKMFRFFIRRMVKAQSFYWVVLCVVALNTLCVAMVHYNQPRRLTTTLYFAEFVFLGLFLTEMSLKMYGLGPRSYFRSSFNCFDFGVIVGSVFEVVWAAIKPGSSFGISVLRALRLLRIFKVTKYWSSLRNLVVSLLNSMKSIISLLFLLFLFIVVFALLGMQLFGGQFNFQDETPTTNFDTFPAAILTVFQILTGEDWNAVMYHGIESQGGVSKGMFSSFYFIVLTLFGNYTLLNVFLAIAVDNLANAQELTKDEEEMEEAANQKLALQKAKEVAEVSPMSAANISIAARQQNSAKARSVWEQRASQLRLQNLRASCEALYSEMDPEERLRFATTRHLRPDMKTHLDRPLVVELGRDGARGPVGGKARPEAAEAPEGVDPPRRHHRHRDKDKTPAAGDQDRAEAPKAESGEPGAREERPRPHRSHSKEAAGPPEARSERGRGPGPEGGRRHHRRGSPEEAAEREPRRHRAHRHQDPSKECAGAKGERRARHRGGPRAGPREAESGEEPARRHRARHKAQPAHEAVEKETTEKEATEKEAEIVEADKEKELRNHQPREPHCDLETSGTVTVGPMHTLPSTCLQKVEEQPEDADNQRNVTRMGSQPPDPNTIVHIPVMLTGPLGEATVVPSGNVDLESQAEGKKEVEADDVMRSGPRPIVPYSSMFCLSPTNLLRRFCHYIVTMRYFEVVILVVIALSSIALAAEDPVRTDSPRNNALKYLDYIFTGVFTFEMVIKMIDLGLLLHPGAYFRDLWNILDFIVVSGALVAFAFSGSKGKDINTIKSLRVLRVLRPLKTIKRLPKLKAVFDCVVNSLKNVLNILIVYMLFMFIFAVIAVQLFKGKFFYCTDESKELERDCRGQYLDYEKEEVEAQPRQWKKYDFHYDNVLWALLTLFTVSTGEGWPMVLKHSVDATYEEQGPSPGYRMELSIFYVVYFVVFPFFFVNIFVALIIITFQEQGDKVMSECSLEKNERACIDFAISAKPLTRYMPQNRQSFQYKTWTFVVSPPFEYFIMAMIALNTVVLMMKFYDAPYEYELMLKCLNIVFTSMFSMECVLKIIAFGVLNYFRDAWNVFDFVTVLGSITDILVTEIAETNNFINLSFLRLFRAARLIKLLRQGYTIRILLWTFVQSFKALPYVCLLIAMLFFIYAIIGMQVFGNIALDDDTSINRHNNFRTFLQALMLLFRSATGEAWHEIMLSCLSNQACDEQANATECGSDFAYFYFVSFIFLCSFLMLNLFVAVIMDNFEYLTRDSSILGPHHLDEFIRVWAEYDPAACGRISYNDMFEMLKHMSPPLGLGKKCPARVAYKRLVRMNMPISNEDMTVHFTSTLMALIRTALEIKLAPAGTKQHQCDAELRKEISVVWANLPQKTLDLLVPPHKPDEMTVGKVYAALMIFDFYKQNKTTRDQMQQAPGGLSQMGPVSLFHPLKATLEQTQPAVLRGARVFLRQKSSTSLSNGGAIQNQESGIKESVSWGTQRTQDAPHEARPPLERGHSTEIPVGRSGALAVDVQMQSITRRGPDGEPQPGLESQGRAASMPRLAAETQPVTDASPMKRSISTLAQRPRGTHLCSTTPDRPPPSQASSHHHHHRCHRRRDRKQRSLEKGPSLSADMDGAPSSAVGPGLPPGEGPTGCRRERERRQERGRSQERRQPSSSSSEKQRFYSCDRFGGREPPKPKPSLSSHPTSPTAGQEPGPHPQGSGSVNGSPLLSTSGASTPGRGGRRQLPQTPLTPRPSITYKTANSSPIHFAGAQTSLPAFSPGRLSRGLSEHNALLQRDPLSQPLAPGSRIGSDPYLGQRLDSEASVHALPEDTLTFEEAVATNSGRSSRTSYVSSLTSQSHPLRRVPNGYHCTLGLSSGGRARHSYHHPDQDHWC
Sequence of human Cav2.2 (P54289 25-956 partner limits assumed): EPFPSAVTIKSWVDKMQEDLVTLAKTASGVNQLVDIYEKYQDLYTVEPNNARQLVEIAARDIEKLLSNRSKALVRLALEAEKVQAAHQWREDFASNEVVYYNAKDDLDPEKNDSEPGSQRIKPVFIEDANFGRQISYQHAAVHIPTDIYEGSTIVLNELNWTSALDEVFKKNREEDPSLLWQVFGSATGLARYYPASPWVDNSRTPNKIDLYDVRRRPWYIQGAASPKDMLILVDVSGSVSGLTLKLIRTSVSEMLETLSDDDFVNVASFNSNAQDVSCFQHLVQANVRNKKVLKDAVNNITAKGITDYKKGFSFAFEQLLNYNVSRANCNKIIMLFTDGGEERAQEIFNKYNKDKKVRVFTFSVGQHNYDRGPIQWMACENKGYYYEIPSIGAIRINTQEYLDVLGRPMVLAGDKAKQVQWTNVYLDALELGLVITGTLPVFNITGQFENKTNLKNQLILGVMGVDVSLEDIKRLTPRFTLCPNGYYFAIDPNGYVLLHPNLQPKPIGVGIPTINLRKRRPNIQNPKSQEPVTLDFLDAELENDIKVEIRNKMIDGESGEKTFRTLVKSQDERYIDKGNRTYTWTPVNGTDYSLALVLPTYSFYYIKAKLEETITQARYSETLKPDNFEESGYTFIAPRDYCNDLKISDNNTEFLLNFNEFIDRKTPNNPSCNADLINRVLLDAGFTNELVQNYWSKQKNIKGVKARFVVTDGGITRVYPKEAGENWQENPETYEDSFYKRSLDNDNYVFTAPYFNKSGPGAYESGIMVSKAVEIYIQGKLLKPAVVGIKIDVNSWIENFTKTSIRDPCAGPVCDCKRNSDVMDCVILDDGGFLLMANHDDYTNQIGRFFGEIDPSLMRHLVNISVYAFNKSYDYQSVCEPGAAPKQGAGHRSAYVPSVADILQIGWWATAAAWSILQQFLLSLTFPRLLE
Sequence of human Cav2.2 (P54289 957-1103 partner limits assumed): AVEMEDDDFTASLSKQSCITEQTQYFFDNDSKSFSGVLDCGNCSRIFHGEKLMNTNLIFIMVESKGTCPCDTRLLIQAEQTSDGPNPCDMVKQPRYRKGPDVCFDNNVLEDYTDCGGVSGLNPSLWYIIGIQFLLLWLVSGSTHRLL
Sequence of human Cav2.2 (P54284 whole entry partner): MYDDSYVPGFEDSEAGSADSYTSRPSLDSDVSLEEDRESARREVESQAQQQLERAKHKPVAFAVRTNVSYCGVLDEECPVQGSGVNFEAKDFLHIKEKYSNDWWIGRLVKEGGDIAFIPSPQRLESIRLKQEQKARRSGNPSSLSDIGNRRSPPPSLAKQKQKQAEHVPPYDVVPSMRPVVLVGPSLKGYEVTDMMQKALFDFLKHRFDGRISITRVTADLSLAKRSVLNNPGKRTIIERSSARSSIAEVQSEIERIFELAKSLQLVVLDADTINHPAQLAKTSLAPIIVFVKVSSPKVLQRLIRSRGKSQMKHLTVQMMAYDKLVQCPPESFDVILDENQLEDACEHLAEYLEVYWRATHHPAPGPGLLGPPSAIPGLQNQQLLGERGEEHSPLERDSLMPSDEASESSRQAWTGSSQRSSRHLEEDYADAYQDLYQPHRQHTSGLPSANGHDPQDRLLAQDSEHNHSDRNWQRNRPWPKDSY

IC50 | Compound
2.07 µM | CCC(CC)C(=O)N[C@H]1CC[C@H]2CN(Cc3cccc(C(F)(F)F)c3)C[C@H]21 (relative stereo) [Example 125, 2-ethyl-N-{(3aS*,4S*,6aR*)-2-[3-(trifluoromethyl)benzyl]octahydrocyclopenta[c]pyrrol-4-yl}butanamide]
2.22 µM | FC(F)(F)c1cccc(N2C[C@H]3CC[C@H](NCc4ncc[nH]4)[C@H]3C2)n1 [Example 675, (3aR,4S,6aS)-N-(1H-imidazol-2-ylmethyl)-2-[6-(trifluoromethyl)pyridin-2-yl]octahydrocyclopenta[c]pyrrol-4-amine]
0.99 µM | CN[C@@H](CC(C)C)C(=O)N[C@H]1CC[C@@H]2CN(c3ccc(F)c(C(F)(F)F)c3)C[C@@H]21 [Example 621, N-{(3aR,4S,6aS)-2-[4-fluoro-3-(trifluoromethyl)phenyl]octahydrocyclopenta[c]pyrrol-4-yl}-N^2-methyl-L-leucinamide]
> 9.5 µM | CNCC(=O)N[C@H]1CC[C@@H]2CN(c3ccc(C(F)(F)F)cc3)C[C@@H]21 [Example 752, N^2-methyl-N-{(3aR,4S,6aS)-2-[4-(trifluoromethyl)phenyl]octahydrocyclopenta[c]pyrrol-4-yl}glycinamide]
0.98 µM | O=C(N[C@H]1CC[C@@H]2CN(c3cccc(C(F)(F)F)n3)C[C@@H]21)c1ccc2ccccc2n1 [Example 569, N-{(3aR,4S,6aS)-2-[6-(trifluoromethyl)pyridin-2-yl]octahydrocyclopenta[c]pyrrol-4-yl}quinoline-2-carboxamide]
1.45 µM | CC(C)N[C@H]1CC[C@@H]2CN(c3cccc(C(F)(F)F)n3)C[C@@H]21 [Example 609, (3aR,4S,6aS)-N-isopropyl-2-[6-(trifluoromethyl)pyridin-2-yl]octahydrocyclopenta[c]pyrrol-4-amine]
> 16.4 µM | CN[C@H](C(=O)N[C@@H]1CC[C@H]2CN(Cc3ccc(F)cc3)C[C@H]21)C(C)C [Example 369, N^1-[(3aS,4R,6aR)-2-(4-fluorobenzyl)octahydrocyclopenta[c]pyrrol-4-yl]-N^2-methyl-L-valinamide]
0.32 µM | CCCC[C@H](NC)C(=O)N[C@H]1CC[C@@H]2CN(c3cccc(C(F)(F)F)n3)C[C@@H]21 [Example 589, N^2-methyl-N-{(3aR,4S,6aS)-2-[6-(trifluoromethyl)pyridin-2-yl]octahydrocyclopenta[c]pyrrol-4-yl}-L-norleucinamide]
3.59 µM | CC(C)NCC(=O)N[C@H]1CC[C@@H]2CN(c3ccc(C(F)(F)F)cc3)C[C@@H]21 [Example 761, N^2-isopropyl-N-{(3aR,4S,6aS)-2-[4-(trifluoromethyl)phenyl]octahydrocyclopenta[c]pyrrol-4-yl}glycinamide]
0.34 µM | O=C(N[C@H]1CC[C@@H]2CN(c3cccc(C(F)(F)F)n3)C[C@@H]21)c1cccc(F)c1 [Example 564, 3-fluoro-N-{(3aR,4S,6aS)-2-[6-(trifluoromethyl)pyridin-2-yl]octahydrocyclopenta[c]pyrrol-4-yl}benzamide]

Same assay, conditions: read-out: IC50 (μM) or percent inhibition (* indicates 3 minute incubation, otherwise 60 minute); IC50; 60 minute pre-incubation with compound; IMR32 cells, 80 mM KCl depolarization

IC50 | Compound
0.51 µM | O=C(N[C@H]1CC[C@H]2CN(Cc3cc(C(F)(F)F)cc(C(F)(F)F)c3)C[C@H]21)C(C1CCCCC1)C1CCCCC1 [Example 59, N-{(3aS,4S,6aR)-2-[3,5-bis(trifluoromethyl)benzyl]octahydrocyclopenta[c]pyrrol-4-yl}-2,2-dicyclohexylacetamide]
2.23 µM | CC(C)(C)CN[C@@H](CC(C)(C)C)C(=O)N[C@H]1CC[C@@H]2CN(S(=O)(=O)c3ccc(C(F)(F)F)cc3)C[C@@H]21 [Example 505, 4-methyl-N^2-neopentyl-N^1-((3aR,4S,6aS)-2-{[4-(trifluoromethyl)phenyl]sulfonyl}octahydrocyclopenta[c]pyrrol-4-yl)-L-leucinamide]
9.36 µM | CC(C)(C)OC(=O)N[C@H](C(=O)N[C@H]1CC[C@@H]2CN(Cc3ccccc3)C[C@@H]21)C(C)(C)C [Example 225, tert-butyl(S)-1-((3aR,4S,6aS)-2-benzyloctahydrocyclopenta[c]pyrrol-4-ylamino)-3,3-dimethyl-1-oxobutan-2-ylcarbamate]
